Test results taken from patent US20260022143A1, “Cyclic Peptide Inhibitors of IL-23” (JANSSEN PHARMACEUTICA NV, priority 2022, published 2026).
Starred links: 1 amine or outer side, 2 acyl side, 3 side chain; linkers in the order of their positions; H or OH if unused. Positions of bridges follow the written chain, without caps; N, C: chain ends. Non-standard residues stand in square brackets, D forms with d. Residues, ends and D or L forms follow the SMILES beside them. *: point of attachment. Trp(7-(3-AcNH-Ph)) = CC(=O)Nc1cccc(-c2cccc3c(C[C@H](N)C(=O)O)c[nH]c23)c1; X43 = C[N+](C)(C)CCCCCc1cn(-c2ccc(C[C@H](N[*:1])C(=O)[*:2])cc2)nn1; Me3N+(CH2)2O(CH2)2O(CH2)2CO = C[N+](C)(C)CCOCCOCCC(=O)*; CH2CH2OCH2CH2OCH2CH2NMe3+ = C[N+](C)(C)CCOCCOCC*; Phe(4-N3) = [N-]=[N+]=Nc1ccc(C[C@H](N)C(=O)O)cc1; Trp(7-Me) = Cc1cccc2c(C[C@H](N)C(=O)O)c[nH]c12; X28 = CCCCCCCCCCCCCCCC[N+](C)(C)CCc1cn(CC*)nn1; Abu(4-yl) = O=C([C@H](CC[*:3])N[*:1])[*:2]; Decanoyl(3,6,9-trioxa) = COCCOCCOCC(=O)*; Lys(Me3) = C[N+](C)(C)CCCC[C@H](N)C(=O)O; 2Nal = N[C@@H](Cc1ccc2ccccc2c1)C(=O)O; AEF = NCCOc1ccc(C[C@H](N)C(=O)O)cc1; X24 = C[N+](C)(CCN[*:1])CC(=O)[*:2]; 3Pal = N[C@@H](Cc1cccnc1)C(=O)O; Lys(Me) = CNCCCC[C@H](N)C(=O)O; Pen = CC(C)(S)[C@H](N)C(=O)O; X55 = OC1(C(F)(F)F)CCN(*)CC1; αMeC = C[C@](N)(CS)C(=O)O; Thp = NC1(C(=O)O)CCOCC1; X3 = C[N+](C)(C)CCCCC*; Sar = CNCC(=O)O

Legend:
[1] = Exposed Polar Surface Area (EPSA); assay type: physicochemical; details: SFC on Chirex 3014 column; sample 1 mM DMSO stock; read-out: EPSA
Outline: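 Chirex 3014 column, 35 °C, 4 mL/min; CO2/MeOH + 20 mM NH4 formate, 5→60% modifier at 20%/min. UV/MS detection. EPSA (Å^2) from retention time vs 8-standard calibration line; duplicates; 1 mM DMSO stock injected undiluted.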

IL-23R = target: T1, IL-23R (Homo sapiens, UniProt Q5VWK5); assay: IL23R Reporter Assay; assay type: cell-based; details: HEK293 cells containing IL-23R, IL-12RP1 and STAT-inducible firefly luciferase reporter; 10 ng/mL IL-23 (EC90); 5 h at 37° C.; read-out: IL23R Reporter Assay
T1 construct: host or cells: HEK293
T1 sequence (Q5VWK5 24-629): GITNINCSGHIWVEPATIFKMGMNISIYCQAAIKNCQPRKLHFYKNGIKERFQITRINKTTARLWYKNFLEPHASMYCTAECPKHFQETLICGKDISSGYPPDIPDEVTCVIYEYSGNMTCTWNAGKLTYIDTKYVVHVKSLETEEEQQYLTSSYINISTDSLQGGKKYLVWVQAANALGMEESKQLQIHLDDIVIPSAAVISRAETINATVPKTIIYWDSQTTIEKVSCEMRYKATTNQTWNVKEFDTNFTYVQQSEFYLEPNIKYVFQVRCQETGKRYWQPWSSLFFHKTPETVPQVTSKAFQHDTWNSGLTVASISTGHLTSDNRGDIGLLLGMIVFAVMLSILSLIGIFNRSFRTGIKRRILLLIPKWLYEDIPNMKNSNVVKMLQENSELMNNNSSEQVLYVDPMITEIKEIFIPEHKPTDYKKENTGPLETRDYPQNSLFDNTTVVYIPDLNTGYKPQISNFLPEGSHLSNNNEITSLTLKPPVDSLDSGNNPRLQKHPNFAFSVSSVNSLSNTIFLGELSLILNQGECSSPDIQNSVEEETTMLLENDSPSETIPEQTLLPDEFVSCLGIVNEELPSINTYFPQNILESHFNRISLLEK

Row | Compound | EPSA [1] | IC50 (IL-23R)
1 | CC(=O)N(C)CCCC[C@@H]1NC(=O)[C@H](Cc2c[nH]c3c(C)cccc23)NC(=O)[C@H]([C@@H](C)O)NC(=O)[C@H](CC(=O)N(C)C)NC(=O)[C@@H](NC(=O)CCOCCOCC[N+](C)(C)C)C(C)(C)SSC(C)(C)[C@@H](C(=O)N[C@@H](Cc2ccc(-n3cc(CCCCC[N+](C)(C)C)nn3)cc2)C(=O)N[C@@H](Cc2ccc3ccccc3c2)C(=O)NC2(C(=O)N[C@@H](CCCCN(C)C(C)=O)C(=O)N[C@@H](CC(N)=O)C(=O)N[C@@H](Cc3cccnc3)C(=O)N(C)CC(=O)N(C)C)CCOCC2)NC1=O [compound 335, cPEG3aCO-Pen(3)-N(N(Me)2)-T-7MeW-K(NMeAc)-Pen(3)-F(4TzlTMA5)-2Nal-THP-K(NMeAc)-N-3Pya-Sar-CON(Me)2] ({Me3N+(CH2)2O(CH2)2O(CH2)2CO}-[Pen]D(NMe2)T[Trp(7-Me)][Lys(Me)](Ac)[Pen][X43][2Nal][Thp][Lys(Me)](Ac)N[3Pal][Sar]-NMe2; disulfide 1-6) | 153 A^2 | 1.2 nM
2 | CC(=O)NCCCC[C@@H]1NC(=O)[C@H](Cc2c[nH]c3c(C)cccc23)NC(=O)[C@H]([C@@H](C)O)NC(=O)[C@H](CC(N)=O)NC(=O)[C@@H](NC(C)=O)C(C)(C)SSC(C)(C)[C@@H](C(=O)N[C@@H](Cc2ccc(OCCN)cc2)C(=O)N[C@@H](Cc2ccc3ccccc3c2)C(=O)NC2(C(=O)N[C@@H](CCC(=O)O)C(=O)N[C@@H](CC(N)=O)C(=O)N[C@@H](Cc3cccnc3)C(=O)N(C)CC(=O)N3CCC(O)(C(F)(F)F)CC3)CCOCC2)NC1=O [compound 135] (Ac-[Pen]NT[Trp(7-Me)]K(Ac)[Pen][AEF][2Nal][Thp]EN[3Pal][Sar]-X55; disulfide 1-6 (inferred)) | 171 A^2 | 3.7 nM
3 | CC(=O)N(C)CCCC[C@@H]1NC(=O)[C@H](Cc2ccccc2)NC(=O)[C@H]([C@@H](C)O)NC(=O)[C@H](CC(=O)N(C)C)NC(=O)[C@@H](NC(=O)CCOCCOCC[N+](C)(C)C)C(C)(C)SSC(C)(C)[C@@H](C(=O)N[C@@H](Cc2ccc(OCCOCCOCC[N+](C)(C)C)cc2)C(=O)N[C@@H](Cc2ccccc2)C(=O)NC2(C(=O)N[C@@H](CCCCN(C)C(C)=O)C(=O)N[C@@H](CC(N)=O)C(=O)N[C@@H](Cc3cccnc3)C(=O)N(C)CC(=O)N(C)C)CCOCC2)NC1=O [compound 565, cPEG3aCO-Pen(3)-N(N(Me)2)-T-F-K(NMeAc)-Pen(3)-APEG3F-F-THP-K(NMeAc)-N-3Pya-Sar-CON(Me)2] ({Me3N+(CH2)2O(CH2)2O(CH2)2CO}-[Pen]D(NMe2)TF[Lys(Me)](Ac)[Pen]Y(CH2CH2OCH2CH2OCH2CH2NMe3+)F[Thp][Lys(Me)](Ac)N[3Pal][Sar]-NMe2; disulfide 1-6) | 144 A^2 | > 16600 nM
4 | CCCCCCCCCCCCCCCC[N+](C)(C)CCc1cn(CCOc2ccc(C[C@H](NC(=O)[C@H]3NC(=O)[C@H](CCCCN(C)C(C)=O)NC(=O)[C@H](Cc4c[nH]c5c(C)cccc45)NC(=O)[C@H]([C@@H](C)O)NC(=O)[C@H](CC(=O)N(C)C)NC(=O)[C@@H](NC(=O)CCOCCOCC[N+](C)(C)C)C(C)(C)SSC3(C)C)C(=O)N[C@@H](Cc3ccc4ccccc4c3)C(=O)NC3(C(=O)N[C@@H](CCCCN(C)C(C)=O)C(=O)N[C@@H](CC(N)=O)C(=O)N[C@@H](Cc4cccnc4)C(=O)N(C)CC(=O)N(C)C)CCOCC3)cc2)nn1 [compound 291, cPEG3aCO-Pen(3)-N(N(Me)2)-T-7MeW-K(NMeAc)-Pen(3)-Y(OTzlChC16)-2Nal-THP-K(NMeAc)-N-3Pya-Sar-CON(Me)2] ({Me3N+(CH2)2O(CH2)2O(CH2)2CO}-[Pen]D(NMe2)T[Trp(7-Me)][Lys(Me)](Ac)[Pen]Y(X28)[2Nal][Thp][Lys(Me)](Ac)N[3Pal][Sar]-NMe2; disulfide 1-6 (inferred)) | 137 A^2 | 610 nM
5 | CC(=O)NCCCC[C@@H]1NC(=O)[C@H](Cc2c[nH]c3c(C)cccc23)NC(=O)[C@H]([C@@H](C)O)NC(=O)[C@H](CC(N)=O)NC(=O)[C@@H](NC(C)=O)C(C)(C)SSC(C)(C)[C@@H](C(=O)N[C@@H](Cc2ccc(N=[N+]=[N-])cc2)C(=O)N[C@@H](Cc2ccc3ccccc3c2)C(=O)NC2(C(=O)N[C@@H](CCCCNC(C)=O)C(=O)N[C@@H](CC(N)=O)C(=O)N[C@@H](Cc3cccnc3)C(=O)N(C)CC(N)=O)CCOCC2)NC1=O [compound 417] (Ac-[Pen]NT[Trp(7-Me)]K(Ac)[Pen][Phe(4-N3)][2Nal][Thp]K(Ac)N[3Pal][Sar]-NH2; disulfide 1-6 (inferred)) | 167 A^2 | 1.4 nM
6 | CC(=O)N(C)CCCC[C@@H]1NC(=O)[C@H](Cc2c[nH]c3c(C)cccc23)NC(=O)[C@H]([C@@H](C)O)NC(=O)[C@H](CC(=O)N(C)C)NC(=O)[C@@H](NC(=O)CCOCCOCC[N+](C)(C)C)C(C)(C)SSC(C)(C)[C@@H](C(=O)N[C@@H](Cc2ccc(OCCCCC[N+](C)(C)C)cc2)C(=O)N[C@@H](Cc2c[nH]c3ccccc23)C(=O)NC2(C(=O)N[C@@H](CCCCN(C)C(C)=O)C(=O)N[C@@H](CC(N)=O)C(=O)N[C@@H](Cc3cccnc3)C(=O)N(C)CC(=O)N(C)C)CCOCC2)NC1=O [compound 497, cPEG3aCO-Pen(3)-N(N(Me)2)-T-7MeW-K(NMeAc)-Pen(3)-TMApF-W-THP-K(NMeAc)-N-3Pya-Sar-CON(Me)2] ({Me3N+(CH2)2O(CH2)2O(CH2)2CO}-[Pen]D(NMe2)T[Trp(7-Me)][Lys(Me)](Ac)[Pen]Y(X3)W[Thp][Lys(Me)](Ac)N[3Pal][Sar]-NMe2; disulfide 1-6) | 162 A^2 | 80 nM
7 | CC(=O)NCCCC[C@@H]1NC(=O)[C@H](Cc2c[nH]c3ccccc23)NC(=O)[C@H]([C@@H](C)O)NC(=O)[C@H](CC(N)=O)NC(=O)[C@@H](NC(=O)[C@H](CCCC[N+](C)(C)C)NC(C)=O)CCSC[C@@](C)(C(=O)N[C@@H](Cc2ccc(OCCCCC[N+](C)(C)C)cc2)C(=O)N[C@@H](Cc2ccc3ccccc3c2)C(=O)NC2(C(=O)N[C@@H](CCCCNC(C)=O)C(=O)N[C@@H](CC(N)=O)C(=O)N[C@@H](Cc3cccnc3)C(=O)N(C)CC(N)=O)CCOCC2)NC1=O [compound 517, MeCO-k(Me)3-Abu(1)-N-T-W-K(Ac)-aMeC(1)-TMAPF-2Nal-THP-K(Ac)-N-3Pya-Sar-CONH2] (Ac-[Lys(Me3)][Abu(4-yl)]NTWK(Ac)[αMeC]Y(X3)[2Nal][Thp]K(Ac)N[3Pal][Sar]-NH2; thioether 2-7) | 241 A^2 | 51 nM
8 | COCCOCCOCC(=O)NCC[N+](C)(C)CC(=O)N[C@@H]1C(=O)N[C@@H](CC(=O)N(C)C)C(=O)N[C@@H]([C@@H](C)O)C(=O)N[C@@H](Cc2c[nH]c3c(C)cccc23)C(=O)N[C@@H](CCCCN(C)C(C)=O)C(=O)N[C@H](C(=O)N[C@@H](Cc2ccc(OCCOCCOCC[N+](C)(C)C)cc2)C(=O)N[C@@H](Cc2ccc3ccccc3c2)C(=O)NC2(C(=O)N[C@@H](CCCCN(C)C(C)=O)C(=O)N[C@@H](CC(N)=O)C(=O)N[C@@H](Cc3cccnc3)C(=O)N(C)CC(=O)N(C)C)CCOCC2)C(C)(C)SSC1(C)C [compound 225, mPEG3CO-SP6-Pen(3)-N(N(Me)2)-T-7MeW-K(NMeAc)-Pen(3)-APEG3F-2Nal-THP-K(NMeAc)-N-3Pya-Sar-CON(Me)2] ({Decanoyl(3,6,9-trioxa)}-[X24][Pen]D(NMe2)T[Trp(7-Me)][Lys(Me)](Ac)[Pen]Y(CH2CH2OCH2CH2OCH2CH2NMe3+)[2Nal][Thp][Lys(Me)](Ac)N[3Pal][Sar]-NMe2; disulfide 2-7) | 136 A^2 | 4.1 nM
9 | CC(=O)NCCCC[C@@H]1NC(=O)[C@H](Cc2c[nH]c3c(-c4cccc(NC(C)=O)c4)cccc23)NC(=O)[C@H]([C@@H](C)O)NC(=O)[C@H](CC(N)=O)NC(=O)[C@@H](NC(C)=O)C(C)(C)SSC(C)(C)[C@@H](C(=O)N[C@@H](Cc2ccc(OCCCCC[N+](C)(C)C)cc2)C(=O)N[C@@H](Cc2ccc3ccccc3c2)C(=O)NC2(C(=O)N[C@@H](CCC(=O)O)C(=O)N[C@@H](CC(N)=O)C(=O)N[C@@H](Cc3cccnc3)C(=O)N(C)CC(N)=O)CCOCC2)NC1=O [compound 451, MeCO-Pen(3)-N-T-7(3NAcPh)W-K(Ac)-Pen(3)-TMAPF-2Nal-THP-E-N-3Pya-Sar-CONH2] (Ac-[Pen]NT[Trp(7-(3-AcNH-Ph))]K(Ac)[Pen]Y(X3)[2Nal][Thp]EN[3Pal][Sar]-NH2; disulfide 1-6) | 172 A^2 | 1.5 nM
10 | CC(=O)NCCCC[C@@H]1NC(=O)[C@H](Cc2c[nH]c3c(-c4cccc(NC(C)=O)c4)cccc23)NC(=O)[C@H]([C@@H](C)O)NC(=O)[C@H](CC(N)=O)NC(=O)[C@@H](NC(=O)CCOCCOCC[N+](C)(C)C)C(C)(C)SSC(C)(C)[C@@H](C(=O)N[C@@H](Cc2ccc(OCCNC(=N)N)cc2)C(=O)N[C@@H](Cc2ccc3ccccc3c2)C(=O)NC2(C(=O)N[C@@H](CCCCN(C)C(C)=O)C(=O)N[C@@H](CC(N)=O)C(=O)N[C@@H](Cc3cncc(C)c3)C(=O)N(C)CC(N)=O)CCOCC2)NC1=O [compound 519, cPEG3aCO-Pen(3)-N-T-7(3NAcPh)W-K(Ac)-Pen(3)-AEF(G)-2Nal-THP-K(NMeAc)-N-3Pya-Sar-CONH2] | 186 A^2 | 1.8 nM
